According to publication PMC10816625, “Targeting Alzheimer’s Disease: Evaluating the Efficacy of C-1 Functionalized N-Aryl-Tetrahydroisoquinolines as Cholinergic Enzyme Inhibitors and Promising Therapeutic Candidates” (International Journal of Molecular Sciences, 2024):

Molecular target: T1, eqBuChE (Equus caballus, UniProt P81908)
T1 construct: butyrylcholinesterase (BuChE) from horse serum (C1057); purchased Sigma-Aldrich C1057; host or cells: horse serum
Experiment: biochemical
Conditions: Table 1; preincubation 6 min, incubation 6 min, 37 °C; mean ± SD; read-out: IC50 BuChE
Experimental: (§1) The abilities of synthesized 22 compounds to inhibit AChE and BuChE activity were determined following Ellman’s procedure using a Perkin Elmer Lambda 35 spectrophotometer with thermostated 1.00 cm quartz cells. AChE’s and BuChE’s stock solutions were diluted with 20 mM TRIS to give 1 unit per mL of enzymes’ activity. […] A 0.01 M DTNB solution was prepared with 0.1 M phosphate buffer (pH 7) containing 0.15% (w/v) sodium bicarbonate. A 0.1 M phosphate buffer (pH 8) was used for assay. pH was adjusted to 8.0 ± 0.1 by adding aliquots of concentrated HCl. Stock solutions (10 mM) of investigated compounds were prepared daily by dissolving solid compounds in DMSO. Diluted solutions were also prepared in DMSO.
(§2) Briefly, enzymes’ assays were prepared as follows. […] Thereafter, 20 μL of ASChI or BSChCI was added, after which the reaction was initiated. […] For the blank value, the addition of 20 μL of buffer replaced the enzyme solution while an addition of 7 μL of DMSO replaced the inhibitor solution. The control solution contained 7 μL of DMSO instead of the inhibitor. The screening test was performed at a 1 × 10^−5 M concentration, and the compounds with more than 50% of inhibition were further assayed using dilution series of up to eight increasing concentrations (10^−5 M to 10^−9 M). The inhibition potency was presented as the dependence on the relative enzyme activity (REA) as the function of the compound’s concentration. IC50 values were determined graphically from Hill curves using Origin 9 Microsoft Windows.

T1 sequence (P81908 whole entry): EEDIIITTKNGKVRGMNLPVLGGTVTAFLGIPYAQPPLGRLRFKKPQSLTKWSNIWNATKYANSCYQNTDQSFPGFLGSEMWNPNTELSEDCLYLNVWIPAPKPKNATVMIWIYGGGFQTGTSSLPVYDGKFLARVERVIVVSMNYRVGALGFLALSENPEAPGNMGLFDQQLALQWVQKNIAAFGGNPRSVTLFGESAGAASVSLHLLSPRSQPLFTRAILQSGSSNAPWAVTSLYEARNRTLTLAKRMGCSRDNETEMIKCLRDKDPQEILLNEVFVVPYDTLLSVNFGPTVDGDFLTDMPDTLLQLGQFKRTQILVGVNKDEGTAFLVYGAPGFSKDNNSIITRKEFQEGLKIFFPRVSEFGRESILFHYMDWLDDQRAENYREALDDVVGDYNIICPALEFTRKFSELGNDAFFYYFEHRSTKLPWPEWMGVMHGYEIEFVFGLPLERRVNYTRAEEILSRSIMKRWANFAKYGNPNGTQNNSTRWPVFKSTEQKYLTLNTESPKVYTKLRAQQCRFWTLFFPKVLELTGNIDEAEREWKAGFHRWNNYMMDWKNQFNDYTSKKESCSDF

COc1cc2c(cc1OC)C(CC(=O)c1ccccc1)N(c1ccc(F)cc1)CC2 (centres unmarked) [Compound 3d] and COc1cc2c(cc1OC)C(CCC(=O)c1ccccc1)N(c1ccc(F)cc1)CC2 (centres unmarked) [Compound 3h] cannot be ordered by IC50: > 10 µM for the first, > 10 µM for the second.

Going from COc1cc2c(cc1OC)C(CCC(=O)c1ccccc1)N(c1ccccc1)CC2 (centres unmarked) [Compound 3g] to COc1cc2c(cc1OC)C(CCC(=O)CCc1ccccc1)N(c1ccccc1)CC2 (centres unmarked) [Compound 3k], the IC50 rises from 8.01 ± 0.55 µM to > 10 µM.

Compared with O=C(CCc1ccccc1)CCC1c2ccccc2CCN1c1ccc(F)cc1 (centres unmarked) [Compound 3j], COc1cc2c(cc1OC)C(CCC(=O)CCc1ccccc1)N(c1ccc(F)cc1)CC2 (centres unmarked) [Compound 3l] is higher in IC50: 4.52 ± 0.15 µM for the first, > 10 µM for the second.

N#CC1c2ccccc2CCN1c1ccccc1 (centres unmarked) [Compound 4a] and COc1cc2c(cc1OC)C(C#N)N(c1ccc(F)cc1)CC2 (centres unmarked) [Compound 4b] cannot be ordered by IC50: > 10 µM for the first, > 10 µM for the second.

With COc1cc2c(cc1OC)C(C#N)N(c1ccc(C)cc1)CC2 (centres unmarked) [Compound 4c] the IC50 was > 10 µM.

Molecular target: T2, eeAChE (Electrophorus electricus, UniProt O42275)
T2 construct: purchased Sigma-Aldrich C3389
T2 sequence (O42275 24-633): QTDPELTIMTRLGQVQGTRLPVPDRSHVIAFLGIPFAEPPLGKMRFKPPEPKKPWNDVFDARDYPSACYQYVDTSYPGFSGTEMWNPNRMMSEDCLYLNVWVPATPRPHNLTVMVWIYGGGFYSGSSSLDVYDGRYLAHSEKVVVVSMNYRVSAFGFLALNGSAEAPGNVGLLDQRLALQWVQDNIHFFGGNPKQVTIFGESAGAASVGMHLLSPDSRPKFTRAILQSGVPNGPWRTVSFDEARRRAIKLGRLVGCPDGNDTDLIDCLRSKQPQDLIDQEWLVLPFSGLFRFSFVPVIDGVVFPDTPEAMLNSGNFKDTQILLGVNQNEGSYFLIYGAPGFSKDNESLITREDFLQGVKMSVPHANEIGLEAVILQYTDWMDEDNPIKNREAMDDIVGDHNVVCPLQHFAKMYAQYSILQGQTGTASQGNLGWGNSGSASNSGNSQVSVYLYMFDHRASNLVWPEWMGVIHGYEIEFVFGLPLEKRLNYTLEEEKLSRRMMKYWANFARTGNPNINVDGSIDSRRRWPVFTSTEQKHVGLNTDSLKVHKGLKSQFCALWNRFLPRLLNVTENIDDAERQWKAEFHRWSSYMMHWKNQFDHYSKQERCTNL
Experiment: biochemical
Type: biochemical
Conditions: IC50(BChE)/IC50(AChE)
Experimental: as §1, §2

In order of falling “Selectivity Index for AChE” value:
1. O=C(CCc1ccccc1)CCC1c2ccccc2CCN1c1ccc(F)cc1 (centres unmarked) [Compound 3j]  1.55
2. COc1cc2c(cc1OC)C(CCC(=O)c1ccccc1)N(c1ccccc1)CC2 (centres unmarked) [Compound 3g]  1.18

Same assay, conditions: Table 1; preincubation 6 min, incubation 6 min, 37 °C; mean ± SD

CCC(=O)CC1c2cc(OC)c(OC)cc2CCN1c1ccccc1 (centres unmarked) [Compound 2e] and COc1cc2c(cc1OC)C(CC(=O)c1ccccc1)N(c1ccc(C)cc1)CC2 (centres unmarked) [Compound 3e] cannot be ordered by IC50: > 10 µM for the first, > 10 µM for the second.

Going from COc1cc2c(cc1OC)C(CC(=O)c1ccccc1)N(c1ccc(F)cc1)CC2 (centres unmarked) [Compound 3d] to COc1cc2c(cc1OC)C(CCC(=O)c1ccccc1)N(c1ccc(F)cc1)CC2 (centres unmarked) [Compound 3h], the IC50 rises from 4.89 ± 0.15 µM to > 10 µM. The first is the more potent here.

First: COc1cc2c(cc1OC)C(CCC(=O)c1ccccc1)N(c1ccccc1)CC2 (centres unmarked) [Compound 3g]
Second: COc1cc2c(cc1OC)C(CCC(=O)CCc1ccccc1)N(c1ccccc1)CC2 (centres unmarked) [Compound 3k]
The IC50 of the first is 1.7-fold higher: 6.78 ± 0.22 µM for the first, 4.02 ± 0.19 µM for the second. The second is the more potent here.

Going from O=C(CCc1ccccc1)CCC1c2ccccc2CCN1c1ccc(F)cc1 (centres unmarked) [Compound 3j] to COc1cc2c(cc1OC)C(CCC(=O)CCc1ccccc1)N(c1ccc(F)cc1)CC2 (centres unmarked) [Compound 3l], the IC50 rises from 2.91 ± 0.09 µM to > 10 µM.

N#CC1c2ccccc2CCN1c1ccccc1 (centres unmarked) [Compound 4a] and COc1cc2c(cc1OC)C(C#N)N(c1ccc(F)cc1)CC2 (centres unmarked) [Compound 4b] cannot be ordered by IC50: > 10 µM for the first, > 10 µM for the second.

With COc1cc2c(cc1OC)C(C#N)N(c1ccc(C)cc1)CC2 (centres unmarked) [Compound 4c] the IC50 was > 10 µM.

Same assay, conditions: compared to unsubstituted 3c

For COc1cc2c(cc1OC)C(CC(=O)c1ccccc1)N(c1ccc(F)cc1)CC2 (centres unmarked) [Compound 3d], the “fold lower inhibitory activity towards AChE” value was 2.5 fold.
